Measured values from patent US4918173A, “2',6'-Dideoxy derivatives of anthracycline glycosides” (Laboratories Hoechst S.A., priority 1985, dated 1990).
Converted amounts (≈) assume the structure as drawn. Like-named read-outs stand apart in the source and are kept apart here.

Legend:
L 1210 leukemia cells = experiment: Effect on L 1210 leukemia cells: colony formation in agarose, method of Hamburger and Salmon modified; type: cell-based; conditions: Mus musculus
Procedure: The cells are incubated for 1 hour at 37° C. in the presence of various concentrations of the tested substance. The cells are then washed twice with Mc Coy 5 A and placed on agarose plates according to the method of Hamburger and Salmon. Furthermore, the test is carried out in parallel with continuous incubation with various concentrations of the substance under study by introducing the substance into the agarose layer before the cells are left to incubate. The dishes are placed in the oven at 37° C. under an atmosphere of 5% CO2 and 20% O2, and a relative humidity of 95% for 5 to 7 days. After this time the colonies with a diameter greater than 60 mcm are counted with the aid of a reversed microscope. […] Two experiments are carried out, one with 1 hour's exposure, the other with continuous exposure.

[1] = versus the parent compounds; F. Arcamone et al. 1976; cited from earlier work
[2] = L1210, L 1210 leukemia cells, 1 h exposure at 37° C., read-out: IC 50, 1 h exposure
[3] = L1210, L 1210 leukemia cells, continuous exposure (substance in agarose layer), 5 to 7 days, read-out: IC 50, Continuous exposure

Row | IC50 (L 1210 leukemia cells; [2]) [µg/mL] | IC50 (L 1210 leukemia cells; [3]) [µg/mL] | SMILES | further results
1 | 2.8 (≈ 4.59 µM) | > 10 | CC(=O)O[C@H]1[C@H](C)O[C@@H](O[C@H]2C[C@]3(COC(C)(C)O3)Cc3c(O)c4c(c(O)c32)C(=O)c2ccccc2C4=O)C[C@@H]1OC(C)=O [XXIII, 1-O-(3',4'-Di-O-acetyl-2',6'-dideoxy-α-L-arabinohexopyranosyl)-1,2,3,4,6,11-hexahydro-1S,3S,5,12-tetrahydroxy-3-hydroxymethyl-3,13-O-isopropylidenenaphthacene-6,11-dione] | 
2 | 0.021 (≈ 0.0368 µM) | 3.6 (≈ 6.31 µM) | CC(=O)O[C@H]1[C@H](C)O[C@@H](O[C@H]2C[C@](O)(CO)Cc3c(O)c4c(c(O)c32)C(=O)c2ccccc2C4=O)C[C@@H]1OC(C)=O [XXIV, 1-O-(3',4'-Di-O-acetyl-2',6'-dideoxy-α-L-arabinohexopyranosyl)-1,2,3,4,6,11-hexahydro-1S,3S,5,12-tetrahydroxy-3-hydroxymethylnaphthacene-6,11-dione] | 
3 |  |  | COc1cccc2c1C(=O)c1c(O)c3c(c(O)c1C2=O)C[C@@](O)(C(=O)CO)C[C@@H]3O[C@H]1C[C@H](N)[C@H](O)[C@H](C)O1 [DOXORUBICIN, reference compound] | IC50 (L 1210 leukemia cells; L1210, 1 h, read-out: IC 50, 1 h exposure): 0.02 µg/mL (≈ 0.0368 µM); IC50 (L 1210 leukemia cells; L1210, read-out: IC 50, Continuous exposure): 0.04 µg/mL (≈ 0.0736 µM)
4 |  |  | COc1cccc2c1C(=O)c1c(O)c3c(c(O)c1C2=O)C[C@@](O)(C(=O)CO)C[C@@H]3O[C@H]1C[C@H](N)[C@H](O)[C@H](C)O1 [adriamycin] | activity relative to the parent compounds [1]: more active; toxicity relative to the parent compounds [1]: less toxic
5 | > 1 | > 1 | C[C@@H]1O[C@@H](O[C@H]2C[C@]3(COC(C)(C)O3)Cc3c(O)c4c(c(O)c32)C(=O)c2ccccc2C4=O)C[C@H](O)[C@H]1O | 
6 | 0.025 (≈ 0.0514 µM) | 0.063 (≈ 0.13 µM) | C[C@@H]1O[C@@H](O[C@H]2C[C@](O)(CO)Cc3c(O)c4c(c(O)c32)C(=O)c2ccccc2C4=O)C[C@H](O)[C@H]1O [XXV, 1-O-(2',6'-dideoxy-α-L-arabinohexopyranosyl)-1,2,3,4,6,11-hexahydro-1S,3S,5,12-tetrahydroxy-3-hydroxymethylnaphthacene-6,11-dione] | 
7 |  |  | CC(=O)[C@]1(O)Cc2c(O)c3c(c(O)c2[C@@H](O[C@H]2C[C@H](N)[C@H](O)[C@H](C)O2)C1)C(=O)c1ccccc1C3=O [4-demethoxydaunorubicin] | activity relative to the parent compounds [1]: more active; toxicity relative to the parent compounds [1]: less toxic
